Calls of active or inactive are those of the source. The calls are words filed in the database; no cut-off is given here.
What was measured:
[1] = target: T1, Progesterone receptor (Homo sapiens, UniProt P06401); assay: Ability to block progesterone induced alkaline phosphatase activity in T47D human breast cancer cell line; assay type: functional, cell-based
T1 sequence (P06401 whole entry): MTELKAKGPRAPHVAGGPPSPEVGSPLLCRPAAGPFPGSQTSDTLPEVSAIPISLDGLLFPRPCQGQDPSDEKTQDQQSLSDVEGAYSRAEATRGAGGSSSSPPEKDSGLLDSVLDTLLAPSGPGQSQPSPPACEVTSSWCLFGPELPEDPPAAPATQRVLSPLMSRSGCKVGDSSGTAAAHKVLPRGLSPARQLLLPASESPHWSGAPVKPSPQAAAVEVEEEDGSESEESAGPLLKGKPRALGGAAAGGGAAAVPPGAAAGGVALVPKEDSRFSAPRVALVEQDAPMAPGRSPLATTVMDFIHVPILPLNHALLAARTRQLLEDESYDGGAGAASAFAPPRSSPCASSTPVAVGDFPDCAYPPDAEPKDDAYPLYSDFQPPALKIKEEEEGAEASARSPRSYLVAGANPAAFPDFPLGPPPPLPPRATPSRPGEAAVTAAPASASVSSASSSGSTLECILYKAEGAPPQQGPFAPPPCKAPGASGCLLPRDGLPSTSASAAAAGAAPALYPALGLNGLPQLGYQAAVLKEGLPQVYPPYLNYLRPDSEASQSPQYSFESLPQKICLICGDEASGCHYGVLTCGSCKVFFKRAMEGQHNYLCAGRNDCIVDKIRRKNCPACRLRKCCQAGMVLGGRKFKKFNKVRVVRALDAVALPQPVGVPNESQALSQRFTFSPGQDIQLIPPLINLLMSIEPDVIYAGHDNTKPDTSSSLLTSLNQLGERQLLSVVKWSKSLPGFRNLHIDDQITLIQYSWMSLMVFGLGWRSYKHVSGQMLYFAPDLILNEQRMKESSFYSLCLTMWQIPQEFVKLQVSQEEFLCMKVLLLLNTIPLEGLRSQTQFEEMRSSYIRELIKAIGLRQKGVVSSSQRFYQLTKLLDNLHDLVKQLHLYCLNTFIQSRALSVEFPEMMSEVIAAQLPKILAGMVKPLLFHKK

[2] = target: T1, Progesterone receptor; assay: Agonistic activity measures the ability to induce alkaline phosphatase in T47D human breast cancer cell line; assay type: functional, cell-based
[3] = target: T2, Androgen receptor (Homo sapiens, UniProt P10275); assay: Antagonist activity for androgen receptor; assay type: functional
T2 sequence (P10275 whole entry): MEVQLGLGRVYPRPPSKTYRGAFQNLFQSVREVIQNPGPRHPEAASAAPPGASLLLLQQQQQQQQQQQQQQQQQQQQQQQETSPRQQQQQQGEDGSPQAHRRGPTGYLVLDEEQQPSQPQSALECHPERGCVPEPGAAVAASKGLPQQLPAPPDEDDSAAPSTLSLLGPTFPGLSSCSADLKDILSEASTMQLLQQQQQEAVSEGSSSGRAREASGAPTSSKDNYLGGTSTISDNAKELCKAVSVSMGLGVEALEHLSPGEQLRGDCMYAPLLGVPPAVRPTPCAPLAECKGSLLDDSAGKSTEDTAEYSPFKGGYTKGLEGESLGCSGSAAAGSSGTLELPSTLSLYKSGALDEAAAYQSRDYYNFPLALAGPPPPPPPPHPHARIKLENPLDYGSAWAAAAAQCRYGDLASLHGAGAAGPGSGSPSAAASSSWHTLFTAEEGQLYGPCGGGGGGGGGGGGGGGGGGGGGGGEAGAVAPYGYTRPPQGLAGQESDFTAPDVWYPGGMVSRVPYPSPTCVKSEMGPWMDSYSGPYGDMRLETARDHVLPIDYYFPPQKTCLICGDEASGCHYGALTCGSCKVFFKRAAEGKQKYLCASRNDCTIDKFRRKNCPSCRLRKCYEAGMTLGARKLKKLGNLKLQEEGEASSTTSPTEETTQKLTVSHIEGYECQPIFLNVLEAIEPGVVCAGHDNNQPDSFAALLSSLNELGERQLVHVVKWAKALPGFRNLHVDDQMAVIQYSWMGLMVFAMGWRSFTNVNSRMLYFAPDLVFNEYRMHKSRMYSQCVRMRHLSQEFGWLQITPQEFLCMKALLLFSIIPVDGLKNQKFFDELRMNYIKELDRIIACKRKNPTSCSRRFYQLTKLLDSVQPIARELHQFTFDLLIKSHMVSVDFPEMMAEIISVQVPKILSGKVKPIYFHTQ

[4] = target: T3, Androgen receptor (Homo sapiens) (UniProt P10275); assay: Agonistic activity for androgen receptor up to 10 uM; Not active; assay type: functional
T3 sequence (whole entry): T2 sequence (P10275 whole entry)

[5] = Agonistic activity for glucocorticoid receptor up to 10 uM; Not active; assay type: functional
[6] = Antagonist activity for glucocorticoid receptor; assay type: functional
[7] = Displacement of [3H]progesterone at progesterone receptor of T47D cells; assay type: cell-based, Homo sapiens
[8] = target: T4, Progesterone receptor (Homo sapiens) (UniProt P06401); assay: Efficacy in vitro relative to P4 in progesterone receptor induced alkaline phosphatase T47D cell assay; assay type: functional, cell-based
T4 sequence (whole entry): T1 sequence (P06401 whole entry)

[9] = target: T1, Progesterone receptor; assay: Agonistic activity as progesterone receptor induced alkaline phosphatase activity in T47D human breast cancer cells; assay type: functional, cell-based
[10] = target: T5, Progesterone receptor (Rattus norvegicus) (UniProt Q63449); assay: Percentage inhibition of progesterone-induced stimulation when administered orally at 10 mg/kg in rat decidualization assay; assay type: functional, organism-based; set-up: dose 10 mg/kg
T5 sequence (whole entry): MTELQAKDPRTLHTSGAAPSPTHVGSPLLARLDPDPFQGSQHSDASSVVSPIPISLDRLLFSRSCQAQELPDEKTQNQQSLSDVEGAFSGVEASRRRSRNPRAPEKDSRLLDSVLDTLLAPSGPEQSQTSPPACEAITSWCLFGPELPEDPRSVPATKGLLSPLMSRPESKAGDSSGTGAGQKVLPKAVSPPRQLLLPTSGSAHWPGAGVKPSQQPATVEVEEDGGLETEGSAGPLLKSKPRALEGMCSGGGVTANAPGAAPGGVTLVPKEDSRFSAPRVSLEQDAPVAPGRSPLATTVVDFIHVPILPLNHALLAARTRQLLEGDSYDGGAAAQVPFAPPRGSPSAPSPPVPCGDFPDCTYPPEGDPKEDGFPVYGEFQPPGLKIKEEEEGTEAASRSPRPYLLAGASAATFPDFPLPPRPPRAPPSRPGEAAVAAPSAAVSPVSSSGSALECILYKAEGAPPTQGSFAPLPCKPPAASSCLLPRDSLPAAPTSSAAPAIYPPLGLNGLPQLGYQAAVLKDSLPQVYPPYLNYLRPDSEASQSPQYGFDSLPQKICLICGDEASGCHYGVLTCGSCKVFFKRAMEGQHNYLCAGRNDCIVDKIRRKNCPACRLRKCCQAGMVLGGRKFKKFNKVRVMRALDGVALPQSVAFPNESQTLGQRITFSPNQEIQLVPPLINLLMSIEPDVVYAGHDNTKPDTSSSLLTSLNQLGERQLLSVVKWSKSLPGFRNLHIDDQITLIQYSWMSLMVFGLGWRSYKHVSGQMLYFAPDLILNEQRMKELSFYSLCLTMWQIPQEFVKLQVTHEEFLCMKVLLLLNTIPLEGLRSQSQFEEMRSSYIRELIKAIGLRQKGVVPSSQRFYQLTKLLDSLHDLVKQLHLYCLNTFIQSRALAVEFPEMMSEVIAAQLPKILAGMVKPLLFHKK

[11] = target: T5, Progesterone receptor (Rattus norvegicus); assay: Percentage inhibition of progesterone-induced stimulation when administered orally at 3 mg/kg in rat decidualization assay; assay type: functional, organism-based; set-up: dose 3 mg/kg

SMILES	IC50 [1] [µM]	EC50 [2] [µM]	IC50 [7] [µM]	also measured
CC1(C)OC(=O)Nc2ccc(-c3ccc(C=O)[nH]3)cc21	> 3	~1		
N#Cc1cccc(-c2ccc3c(c2)C2(CCCCC2)C(=O)N3)c1				IC50 [3]: > 1 µM; Activity [4]: inactive; Activity [5]: inactive; IC50 [6]: > 1 µM
CC1(C)OC(=O)Nc2ccc(-c3cnc(C#N)o3)cc21	~3	> 1		
Cn1c(-c2ccc3c(c2)C(C)(C)OC(=O)N3)cnc1C#N	> 3	0.13		
Cn1ccc(C#N)c1-c1ccc2c(c1)C(C)(C)OC(=O)N2	~3	> 1		
CC1(C)OC(=O)Nc2ccc(-c3ccc[nH]3)cc21	~3	> 3		
Cn1c(C#N)ccc1-c1ccc2c(c1)C1(CCCCC1)C(=O)N2	> 3	0.0028	0.0034	
CCn1c(C#N)ccc1-c1ccc2c(c1)C(C)(C)OC(=O)N2	~3		0.0094	Efficacy [8]: 80%; EC50 [9]: 0.0018 µM; inhibition [10]: 30%
CC#C[C@]1(O)CC[C@H]2[C@@H]3CCC4=CC(=O)CCC4=C3[C@@H](c3ccc(N(C)C)cc3)C[C@@]21C [MIFEPRISTONE]			0.0007	
CC1(C)OC(=O)Nc2ccc(-c3ccc(C#N)[nH]3)cc21	> 3	0.0021	0.029	
CC(=O)[C@H]1CC[C@H]2[C@@H]3CCC4=CC(=O)CC[C@]4(C)[C@H]3CC[C@]12C [PROGESTERONE]			0.0034	
CC1(C)OC(=O)Nc2ccc(-c3[nH]ccc3C#N)cc21	> 3	> 1		
CC1(C)OC(=O)Nc2ccc(-c3ccc(C(=O)C(F)(F)F)[nH]3)cc21	> 3	~1		
Cn1c(C#N)ccc1-c1ccc2c(c1)C(C)(C)OC(=O)N2	> 3		0.0049	Efficacy [8]: 80%; EC50 [9]: 0.0011 µM; inhibition [10]: 50%
N#Cc1ccc(-c2ccc3c(c2)C2(CCCCC2)C(=O)N3)[nH]1	> 3	0.06		

More lines, in order of falling IC50 [1], values ahead:

IC50 [1] [µM]	EC50 [2] [µM]	IC50 [7] [µM]	SMILES	also measured
~2	> 1		CC1(C)OC(=O)Nc2ccc(-c3c[nH]c(C#N)c3)cc21	
0.18	~1		CC1(C)OC(=O)Nc2ccc(-c3ccc([N+](=O)[O-])[nH]3)cc21	
0.065	~3		CC1(C)OC(=O)Nc2ccc(-c3ccc(C#N)o3)cc21	
0.041	> 1	0.088	Cn1cc(-c2ccc3c(c2)C(C)(C)OC(=O)N3)cc1C#N	
0.036	> 1		O=C1Nc2ccc(-c3ccc([N+](=O)[O-])[nH]3)cc2C12CCCCC2	inhibition [11]: 50%
0.023	~1		CC1(C)OC(=O)Nc2ccc(-c3ccc(C#N)s3)cc21	
0.008	~1	0.018	CC1(C)OC(=O)Nc2ccc(-c3cccc(C#N)c3)cc21	

Reference: ChEMBL document CHEMBL1147554, “Novel pyrrole-containing progesterone receptor modulators” (Bioorg Med Chem Lett, 2004)
